Data set [1] is described as follows: AUC in rat at 1000 mg/kg, po administered via gavage by HPLC/MS analysis. It is filed as ADME, organism-based. Particulars: in vivo.
Data set [2] in a line: AUC in rat at 100 mg/kg, po administered via gavage by HPLC/MS analysis. It is filed as ADME, organism-based. Particulars: in vivo.
Data set [3] deals with Enterobacterales. Nature of the data set: Potentiation of meropenem-induced antibacterial activity against Enterobacterales assessed as meropenem MIC50 at 8 ug/ml by broth microdilution method (reference value: 1 ug/ml). It is filed as functional. For orientation: In broth dilution the organism is exposed to a series of concentrations in liquid medium.
The subject of data set [4] is Enterobacteriaceae. Nature of the data set: Inhibition of NDM/VIM in carbapenem-resistant Enterobacteriaceae assessed as potentiation of meropenem-induced antibacterial activity by measuring meropenem MIC90 at 8 ug/ml by broth microdilution method (Rvb > 32 ug/ml).
For data set [5], the target named is Angiotensin-converting enzyme 2 (Homo sapiens, UniProt Q9BYF1). In words: Inhibition of mammalian ACE-2 (unknown origin) using Mca-APK(Dnp) as substrate preincubated for 10 mins followed by substrate addition measured after 30 mins.
Chain of Angiotensin-converting enzyme 2 (Q9BYF1 whole entry): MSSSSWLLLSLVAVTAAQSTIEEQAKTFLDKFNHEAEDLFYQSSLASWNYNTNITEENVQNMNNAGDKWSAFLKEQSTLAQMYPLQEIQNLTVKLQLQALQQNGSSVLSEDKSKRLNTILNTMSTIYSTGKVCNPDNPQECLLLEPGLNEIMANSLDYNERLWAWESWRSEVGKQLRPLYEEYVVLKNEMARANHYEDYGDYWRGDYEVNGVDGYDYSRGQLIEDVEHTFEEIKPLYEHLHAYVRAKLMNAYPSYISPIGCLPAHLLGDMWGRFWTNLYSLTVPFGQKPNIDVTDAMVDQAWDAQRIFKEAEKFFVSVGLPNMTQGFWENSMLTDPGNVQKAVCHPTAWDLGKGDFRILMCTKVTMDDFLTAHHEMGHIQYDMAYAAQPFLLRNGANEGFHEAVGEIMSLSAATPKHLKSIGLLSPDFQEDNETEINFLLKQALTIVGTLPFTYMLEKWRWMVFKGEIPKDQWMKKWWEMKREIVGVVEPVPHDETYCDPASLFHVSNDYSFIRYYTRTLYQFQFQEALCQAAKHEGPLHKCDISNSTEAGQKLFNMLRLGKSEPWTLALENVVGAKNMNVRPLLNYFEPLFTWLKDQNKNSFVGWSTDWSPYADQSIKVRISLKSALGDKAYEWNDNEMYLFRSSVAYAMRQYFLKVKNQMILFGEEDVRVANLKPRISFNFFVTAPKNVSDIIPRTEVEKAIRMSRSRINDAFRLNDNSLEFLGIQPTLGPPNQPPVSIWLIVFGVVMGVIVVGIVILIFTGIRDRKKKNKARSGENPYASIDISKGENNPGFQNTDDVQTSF
Data set [6] has as its system Klebsiella pneumoniae. Nature of the data set: Inhibition of Klebsiella pneumoniae KP1081 NDM-1 assessed as minimum concentration of compound required to reduce the MIC of biapenem to 1 ug/ml.
The target in data set [7] is Matrix metalloproteinase-9 (Homo sapiens, UniProt P14780). In words: Inhibition of mammalian MMP-9 (unknown origin) using McaPLGLDpaAR-NH2 as substrate preincubated for 10 mins followed by substrate addition measured after 30 mins.
Chain of Matrix metalloproteinase-9 (P14780 whole entry): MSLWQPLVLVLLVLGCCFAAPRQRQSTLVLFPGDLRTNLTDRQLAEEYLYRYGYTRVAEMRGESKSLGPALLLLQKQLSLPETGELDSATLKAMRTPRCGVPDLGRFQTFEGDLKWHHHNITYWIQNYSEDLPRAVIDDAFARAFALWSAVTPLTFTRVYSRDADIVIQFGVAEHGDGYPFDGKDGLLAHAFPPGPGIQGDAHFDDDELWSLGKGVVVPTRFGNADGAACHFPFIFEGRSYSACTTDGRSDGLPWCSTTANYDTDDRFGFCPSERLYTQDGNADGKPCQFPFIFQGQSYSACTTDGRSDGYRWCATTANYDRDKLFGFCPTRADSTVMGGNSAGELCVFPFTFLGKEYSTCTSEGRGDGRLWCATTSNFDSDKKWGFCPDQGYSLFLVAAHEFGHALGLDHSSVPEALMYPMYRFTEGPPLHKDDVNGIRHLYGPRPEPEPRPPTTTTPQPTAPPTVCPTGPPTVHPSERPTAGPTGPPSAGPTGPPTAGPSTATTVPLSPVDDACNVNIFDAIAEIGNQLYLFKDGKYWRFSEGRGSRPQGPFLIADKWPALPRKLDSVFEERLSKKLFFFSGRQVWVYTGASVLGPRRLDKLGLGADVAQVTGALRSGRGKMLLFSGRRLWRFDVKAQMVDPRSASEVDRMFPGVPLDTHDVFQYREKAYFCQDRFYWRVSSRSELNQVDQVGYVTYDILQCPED
Data set [8] deals with Klebsiella pneumoniae. In words: Potentiation of cefepime-induced antibacterial activity against carbapenem-resistant Klebsiella pneumoniae assessed as cefepime MIC90 at 8 ug/ml by broth microdilution method (Rvb > 32 ug/ml). It is filed as functional.
Data set [9] deals with Acinetobacter baumannii. Nature of the data set: Potentiation of meropenem-induced antibacterial activity against carbapenem-resistant Acinetobacter baumannii assessed as meropenem MIC90 at 8 ug/ml by broth microdilution method (Rvb > 32 ug/ml). It is filed as functional.
Data set [10] relates to Acinetobacter baumannii. In words: Potentiation of meropenem-induced antibacterial activity against carbapenem-resistant Acinetobacter baumannii assessed as meropenem MIC50 at 8 ug/ml by broth microdilution method (Rvb > 32 ug/ml). It is filed as functional.
The target in data set [11] is Urokinase-type plasminogen activator (Homo sapiens, UniProt P00749). In words: Inhibition of mammalian urokinase (unknown origin) using NGK-pNA as substrate preincubated for 10 mins followed by substrate addition measured after 30 mins.
Data set [12] has as its system Enterobacteriaceae. In words: Inhibition of OXA-48 in carbapenem-resistant Enterobacteriaceae assessed as potentiation of cefepime-induced antibacterial activity by measuring cefepime MIC50 at 8 ug/ml by broth microdilution method (Rvb > 32 ug/ml).
The subject of data set [13] is Klebsiella pneumoniae. Nature of the data set: Potentiation of meropenem-induced bacteriostatic activity against carbapenem-resistant Klebsiella pneumoniae KP1244 harboring KPC-3, SHV-11, and SHV-12 infected in Swiss-Webster mouse model of neutropenic thigh infection assessed as log change in bacterial count in thigh at 1 mg/kg, ip administered at 2 hrs interval for 24 hrs starting from 2 hr post infection and measured post last dose (reference value: 0.62 log10CFU). It is filed as functional.

Data set [14] relates to Enterobacterales. In words: Potentiation of cefepime-induced antibacterial activity against Enterobacterales assessed as cefepime MIC50 at 8 ug/ml by broth microdilution method (reference value: 32 ug/ml). It is filed as functional.
A short description of data set [15]: Half life in rat at 300 mg/kg, iv administered as infusion for 0.5 hrs by HPLC/MS analysis. Particulars: in vivo. It is filed as ADME, organism-based.
In the next data set the target is Neutrophil elastase (Homo sapiens, UniProt P08246). In words: Inhibition of mammalian neutrophil elastase (unknown origin) using MeOSuc-AAVP-AMC as substrate preincubated for 10 mins followed by substrate addition measured after 30 mins.
Chain of Neutrophil elastase (P08246 whole entry, the tested form may be a part): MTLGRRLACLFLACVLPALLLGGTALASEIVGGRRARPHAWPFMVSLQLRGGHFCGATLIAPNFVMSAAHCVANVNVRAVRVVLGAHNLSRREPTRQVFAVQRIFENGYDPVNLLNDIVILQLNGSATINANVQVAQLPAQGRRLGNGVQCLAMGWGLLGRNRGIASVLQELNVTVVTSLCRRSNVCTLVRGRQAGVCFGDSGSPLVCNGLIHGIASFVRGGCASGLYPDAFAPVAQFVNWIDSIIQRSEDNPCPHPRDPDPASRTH
Data set [16] is described as follows: Cmax in rat at 300 mg/kg, iv administered as infusion for 0.5 hrs by HPLC/MS analysis. It is filed as ADME, organism-based. Also on record: dose 300 mg/kg, route intravenous. Particulars: in vivo.
Data set [17] deals with Beta-lactamase (Klebsiella pneumoniae) (UniProt Q93LQ9). In words: Inhibition of Klebsiella pneumoniae KP1004 KPC-2 assessed as minimum concentration of compound needed to reduce the MIC of aztreonam to 4 ug/ml.
Chain of Beta-lactamase (Klebsiella pneumoniae) (Q93LQ9 as listed by the source): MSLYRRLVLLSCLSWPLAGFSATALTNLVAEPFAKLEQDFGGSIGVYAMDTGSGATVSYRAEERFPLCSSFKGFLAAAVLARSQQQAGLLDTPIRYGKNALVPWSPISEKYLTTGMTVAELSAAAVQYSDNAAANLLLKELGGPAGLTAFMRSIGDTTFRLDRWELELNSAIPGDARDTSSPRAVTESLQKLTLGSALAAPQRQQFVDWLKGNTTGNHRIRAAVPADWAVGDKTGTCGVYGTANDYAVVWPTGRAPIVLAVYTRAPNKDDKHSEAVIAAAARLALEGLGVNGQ
A short description of data set [18]: Lipophilicity, log D of the compound at pH 7.4. Conditions: buffer. It is filed as physicochemical.

Where only a bound is given, the exact number is not on record here.

What is called AUC is the area under the concentration-time curve, a measure of exposure. A lower AUC goes with low exposure. What is called IC50 is the point on the concentration scale where inhibition reaches its midpoint. A high value points to weaker potency. By half-life is commonly meant the time in which the quantity being followed falls by half. By Cmax is commonly meant the highest concentration seen after dosing. For orientation: logD means the decadic logarithm of the distribution of all forms, ionised or not, between an organic phase and buffer at a given pH. Read a low logD as lower lipophilicity. As for `O=C(O)c1c(F)ccc2c1OB(O)[C@@H]1C[C@H]21` [XERUBORBACTAM], the AUC came out at 504 µg·h/mL in [1] and 89.7 µg·h/mL in data set [2]. Besides, the MIC50 in the data set on Enterobacterales [3] is no more than 0.015 µg/mL; in the data set with Acinetobacter baumannii [10], 0.5 µg/mL; in the data set on Enterobacteriaceae [12] it was 0.125 µg/mL; in the data set with Enterobacterales [14] it was no more than 0.06 µg/mL. Also, the figures for the MIC90 in the data set on Enterobacteriaceae [4], in the data set on Klebsiella pneumoniae [8] and in the data set with Acinetobacter baumannii [9] were 2 µg/mL, 0.25 µg/mL and 4 µg/mL, respectively. Moreover, the IC50 in [5] was greater than 1 mM; in data set [7], greater than 1 mM; in data set [11], greater than 1 mM; against Neutrophil elastase, 0.132 mM. In addition, the figures for the MEC (with Klebsiella pneumoniae [6]; in data set [17]) were 0.6 µg/mL and 0.3 µg/mL, respectively. Also, the Activity in the data set on Klebsiella pneumoniae [13] is listed as -0.42 log10CFU. Further, the half-life in [15] was 1.18 h. In data set [16], this compound gave a Cmax of 544 µg/mL. The compound also yielded a logD in [18] of -2.85.

The values above are taken from ChEMBL document CHEMBL4616632, “Discovery of Cyclic Boronic Acid QPX7728, an Ultrabroad-Spectrum Inhibitor of Serine and Metallo-β-lactamases” (J Med Chem, 2020).
